pIC50: −log10 of the molar value. Activity calls are given as the source filed them. Unless noted, no cut-off for these calls is given here.
Legend:
[1] = target: T1, Glucosyltransferase-I (Streptococcus mutans serotype c (strain ATCC 700610 / UA159)) (UniProt P08987); assay: Inhibition of GtfB in Streptococcus mutans UA159 assessed as reduction in glucans level by Coomassie blue dye based SDS-PAGE analysis
T1 sequence (whole entry): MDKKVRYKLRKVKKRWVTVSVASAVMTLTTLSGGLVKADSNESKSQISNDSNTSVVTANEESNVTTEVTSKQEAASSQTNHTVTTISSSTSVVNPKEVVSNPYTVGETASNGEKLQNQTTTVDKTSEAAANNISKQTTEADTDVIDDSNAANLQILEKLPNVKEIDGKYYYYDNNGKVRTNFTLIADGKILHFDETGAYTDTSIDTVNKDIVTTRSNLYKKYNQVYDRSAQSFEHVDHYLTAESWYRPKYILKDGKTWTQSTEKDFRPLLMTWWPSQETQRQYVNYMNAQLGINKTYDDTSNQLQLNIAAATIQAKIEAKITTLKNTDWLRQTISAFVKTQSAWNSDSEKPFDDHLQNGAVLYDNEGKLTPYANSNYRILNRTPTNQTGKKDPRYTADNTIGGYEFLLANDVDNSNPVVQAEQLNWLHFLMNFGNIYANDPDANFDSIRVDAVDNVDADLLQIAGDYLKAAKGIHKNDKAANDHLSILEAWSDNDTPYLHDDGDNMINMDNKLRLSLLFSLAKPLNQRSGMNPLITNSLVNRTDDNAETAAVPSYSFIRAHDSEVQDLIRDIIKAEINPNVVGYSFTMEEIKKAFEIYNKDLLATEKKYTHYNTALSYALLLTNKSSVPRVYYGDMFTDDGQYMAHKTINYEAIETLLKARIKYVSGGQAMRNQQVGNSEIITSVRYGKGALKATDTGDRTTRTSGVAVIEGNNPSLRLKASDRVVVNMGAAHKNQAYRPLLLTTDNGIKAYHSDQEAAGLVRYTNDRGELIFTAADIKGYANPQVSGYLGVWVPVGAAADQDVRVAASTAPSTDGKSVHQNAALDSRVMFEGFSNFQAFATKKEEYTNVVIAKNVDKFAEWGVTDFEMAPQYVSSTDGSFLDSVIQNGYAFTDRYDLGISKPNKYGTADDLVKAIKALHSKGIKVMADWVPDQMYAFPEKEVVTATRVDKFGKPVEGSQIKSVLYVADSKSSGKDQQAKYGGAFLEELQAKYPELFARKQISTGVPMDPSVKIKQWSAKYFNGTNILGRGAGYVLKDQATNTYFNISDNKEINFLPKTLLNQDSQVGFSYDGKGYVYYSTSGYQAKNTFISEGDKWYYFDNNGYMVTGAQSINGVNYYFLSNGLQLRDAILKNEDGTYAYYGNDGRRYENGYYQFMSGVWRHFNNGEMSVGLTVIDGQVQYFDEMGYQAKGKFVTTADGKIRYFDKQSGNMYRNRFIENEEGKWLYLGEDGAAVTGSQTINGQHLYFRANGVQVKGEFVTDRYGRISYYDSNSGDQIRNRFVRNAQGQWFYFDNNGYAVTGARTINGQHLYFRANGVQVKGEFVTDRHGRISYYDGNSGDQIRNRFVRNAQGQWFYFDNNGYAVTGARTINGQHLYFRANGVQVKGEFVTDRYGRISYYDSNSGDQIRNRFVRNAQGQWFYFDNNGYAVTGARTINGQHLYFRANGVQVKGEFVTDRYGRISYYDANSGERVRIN

Streptococcus mutans [2] = assay: Bactericidal activity against Streptococcus mutans UA159 assessed as reduction in bacterial growth at 100 uM after 24 hrs; type: functional, organism-based
[3] = target: T2, Glucosyltransferase-S (Streptococcus mutans serotype c (strain ATCC 700610 / UA159)) (UniProt P49331); assay: Inhibition of GtfD in Streptococcus mutans UA159 assessed as reduction in glucans level by Coomassie blue dye based SDS-PAGE analysis
T2 sequence (whole entry): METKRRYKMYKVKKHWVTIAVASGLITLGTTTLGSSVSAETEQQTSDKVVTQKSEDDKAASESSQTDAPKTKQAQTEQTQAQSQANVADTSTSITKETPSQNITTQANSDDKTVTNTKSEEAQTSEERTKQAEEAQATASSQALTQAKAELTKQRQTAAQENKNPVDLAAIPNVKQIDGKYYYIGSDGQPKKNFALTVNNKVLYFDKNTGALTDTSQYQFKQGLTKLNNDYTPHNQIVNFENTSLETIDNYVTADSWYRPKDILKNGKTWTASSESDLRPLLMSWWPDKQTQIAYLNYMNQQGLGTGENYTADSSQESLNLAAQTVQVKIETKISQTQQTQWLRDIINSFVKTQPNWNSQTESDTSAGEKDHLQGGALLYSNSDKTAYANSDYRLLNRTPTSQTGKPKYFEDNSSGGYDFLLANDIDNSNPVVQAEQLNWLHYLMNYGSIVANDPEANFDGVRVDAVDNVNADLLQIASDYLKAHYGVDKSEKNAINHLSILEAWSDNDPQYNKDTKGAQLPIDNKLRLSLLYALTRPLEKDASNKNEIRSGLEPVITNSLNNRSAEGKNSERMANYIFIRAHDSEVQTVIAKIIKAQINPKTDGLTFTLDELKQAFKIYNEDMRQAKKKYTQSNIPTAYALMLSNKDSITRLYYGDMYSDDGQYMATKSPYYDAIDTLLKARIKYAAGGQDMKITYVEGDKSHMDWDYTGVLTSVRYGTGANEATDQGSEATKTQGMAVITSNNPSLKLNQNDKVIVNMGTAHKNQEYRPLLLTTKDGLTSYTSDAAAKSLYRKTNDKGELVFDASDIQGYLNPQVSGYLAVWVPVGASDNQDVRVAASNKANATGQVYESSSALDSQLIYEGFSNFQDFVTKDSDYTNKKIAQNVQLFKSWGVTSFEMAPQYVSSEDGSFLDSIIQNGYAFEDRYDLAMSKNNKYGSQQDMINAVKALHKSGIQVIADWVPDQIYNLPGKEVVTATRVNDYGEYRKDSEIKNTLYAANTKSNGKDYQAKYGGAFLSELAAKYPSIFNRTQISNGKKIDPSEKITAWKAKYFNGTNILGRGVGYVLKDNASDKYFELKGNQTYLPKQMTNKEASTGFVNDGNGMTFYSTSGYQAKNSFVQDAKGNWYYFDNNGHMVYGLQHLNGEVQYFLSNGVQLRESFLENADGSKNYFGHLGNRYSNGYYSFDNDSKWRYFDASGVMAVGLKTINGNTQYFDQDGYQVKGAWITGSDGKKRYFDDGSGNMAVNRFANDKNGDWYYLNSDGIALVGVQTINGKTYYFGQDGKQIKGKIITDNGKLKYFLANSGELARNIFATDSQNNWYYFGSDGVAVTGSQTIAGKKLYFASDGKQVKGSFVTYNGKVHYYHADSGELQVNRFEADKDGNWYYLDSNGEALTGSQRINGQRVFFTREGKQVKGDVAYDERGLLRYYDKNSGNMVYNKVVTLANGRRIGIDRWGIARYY

Streptococcus mutans [4] = assay: Antibiofilm activity against Streptococcus mutans UA159 assessed as inhibition of biofilm formation by serial dilution method; type: functional, organism-based; settings: Streptococcus mutans, UA159; read-out: IC50

SMILES | inhibition [1] | inhibition [3] | pIC50 (Streptococcus mutans [4]) | Activity (Streptococcus mutans [2])
NC(=O)c1ccccc1NC(=O)c1cc2cc([N+](=O)[O-])ccc2s1 | Active | Active | 4.78 | inactive
NC(=O)c1ccccc1NC(=O)c1cnc2ccccc2c1 | Active | Active | 4.82 | inactive
O=C(c1ccc(F)cc1)c1ccc(-c2[nH]c(-c3ccc([N+](=O)[O-])cc3O)nc2-c2ccccc2)cc1 | Active | Active | – | –
CC(C)(C)OC(=O)NCc1ccccc1NC(=O)c1cc2cc([N+](=O)[O-])ccc2s1 | Active | Active | 4.29 | inactive
CC(C)(C)OC(=O)NCc1ccccc1NC(=O)c1cnc2ccccc2c1 | Active | Active | 4.28 | inactive

The next lines start with results.

inhibition [1] | inhibition [3] | pIC50 (Streptococcus mutans [4]) | SMILES | Activity (Streptococcus mutans [2])
Active | Active | 5.07 | NC(=O)c1cccc(NC(=O)c2cnc3ccccc3c2)c1 | inactive
Active | Active | 5.02 | COC(=O)c1ccc(NC(=O)c2cc3cc([N+](=O)[O-])ccc3s2)cc1 | inactive

Source: ChEMBL document CHEMBL4673385, “Discovery of Potent Inhibitors of Streptococcus mutans Biofilm with Antivirulence Activity” (ACS Med Chem Lett, 2021)
